Where two headings read alike, the source gives them in different places.
Biological target: T1, PTBP1 RRM12 (Homo sapiens, UniProt P26599)
T1 construct: (P57-V265); MBP (from pMAL vector); His tag; made in house; host or cells: E. coli BL21 DE3 RIL
T1 sequence (P26599 57-265): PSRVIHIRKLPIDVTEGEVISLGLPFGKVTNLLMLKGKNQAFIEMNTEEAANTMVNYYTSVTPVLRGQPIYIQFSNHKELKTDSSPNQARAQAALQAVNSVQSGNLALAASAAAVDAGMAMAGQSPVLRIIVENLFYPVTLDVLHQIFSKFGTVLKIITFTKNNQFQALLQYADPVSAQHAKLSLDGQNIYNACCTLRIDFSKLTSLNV
Assay: Competitive fluorescence polarization assay between RRM12 and RNA-2
Format: binding
Excerpt: For the initial design we used the i, i + 4 strategy where two (S)-pentenyl alanines (S5) were introduced in positions with three other amino acids in between. We picked three different amino acid pairs to replace with the S5 amino acids based on their orientation as observed in the NMR structures (P-2, P-3 and P-4, Fig. 2B and C).[25] To prevent the staple from disturbing the interaction between the ligand and the protein we chose positions facing away from the binding site forming the pairs Ala145/Ala149, Gln148/Gln152, and Ala149/Ala153. The three peptides were synthesized on Rink amide resin and the linear peptides were treated with a Grubbs catalyst to connect the S5 residues. To avoid a mixture of E/Z-diastereomers we reduced the alkene in the linker of the staple using a solution phase hydrogenation protocol.[43] The linear equivalent P-1 was synthesized for comparison but had to be extended on the C-terminus with an arginine residue to improve its solubility. The C-terminus is away from the binding surface and this modification was therefore not expected to have an impact on the binding affinity. The peptides were tested in a competitive fluorescence polarization assay using the RRM12 construct and RNA-2 (Fig. 2C and S2 ^†). […] As the staple is expected to stabilize the α-helical conformation we used circular dichroism (CD) spectroscopy to evaluate the helicity of the peptides. […] It is possible that although P-4 was more helical than P-3, the replacement of Gln148 with the hydrophobic linker disturbed the interaction since the side chain amide potentially interacts with the RRM1 surface. […]
size exclusion chromatography (Superdex 75 16/60 or 26/60) with SEC buffer (50 mM Tris, 200 mM NaCl). Protein homogeneity was assessed by the size exclusion chromatogram and purity was checked by SDS-PAGE analysis to be >= 90%.
The gene encoding for SRSF1-RRM12 (1-195) was subcloned into pOPIN-His expression vector and expressed in E. coli BL21 (DE3). A pre-culture of transformed bacteria was made followed by expression in LB-Medium (100 µg/ml Ampicillin, 1 mM IPTG, 18 °C, 160 rpm overnight) after growing the culture at 37 °C, 160 rpm to an OD600 of 0.6. The harvested cells (5000 x g, 4 °C, 15 min) were resuspended in Buffer ASRSF1 (50 mM Na2HPO4 pH 8.0, 300 mM KCl, 50 mM L-Arg, 50 mM L-Gly, 1.5 mM MgCl2) supplemented with 1 mM PMSF followed by lysis through sonification. The protein was purified using a HisTrap HP 5 ml column (GE-Healthcare) using a gradient of Buffer BSRSF1 (50 mM Na2HPO4 pH 8.0, 300 mM KCl, 50 mM L-Arg, 50 mM L-Gly, 1.5 mM MgCl2, 500 mM Imidazole) followed by dialysis into wash buffer (50 mM Na2HPO4 pH 8.0, 300 mM KCl, 50 mM L-Arg, 50 mM L-Gly, 1.5 mM MgCl2, 40 mM Imidazole) and a second run of the affinity column. The protein containing fractions were afterwards dialyzed into wash buffer with tag-cleavage using His-tagged 3C protease. The cleaved construct was subsequently used for a third affinity column run collecting the unbound fraction which was dialyzed into storage buffer (20 mM Na2HPO4 pH 8.0, 150 mM KCl, 50 mM L-Arg, 50 mM L-Gly, 1.5 mM MgCl2, 0.2 mM EDTA, 1 mM TCEP).
Purification of hnRNP A2/B1
The MBP-tagged hnRNP A2/B1 construct (1-251) was expressed from a pOPIN-His-MBP vector in E. coli BL21 (DE3) RIPL cells. A pre-culture in TB (0.01% lactose, 2mM MgSO4, 100 µg/ml ampicillin, 50 µg/ml chloramphenicol) was used to inoculate the expression culture with a starting OD600 of 0.05 at 37 °C. Expression was autoinduced at 37 °C for 4 h followed by expression over night at 25 °C. Harvested cells (5000 x g, 15 min, 4 °C) were resuspended in Buffer AhnRNPA2/B1 (50 mM HEPES pH 8.0, 300 mM NACl, 20 mM Imidazole, 1 mM TCEP) supplemented with 1 mM PMSF) and lysed with a microfluidizer.
Immobilized metal affinity chromatography was performed using a HisTrap FF crude 5 ml column. The loaded protein was washed with wash buffer (50 mM HEPES pH 8.0, 300 mM NaCl, 30 mM Imidazole, […]

[1] = Fig. 2C, 5 nM FAM-RNA-2, protein at 50-70 % probe binding, FP buffer pH 8.0, 20 °C, 30 min, n.b. given for inactive peptides, read-out: Ki, competitive FP assay between RRM12 and RNA-2

SMILES	Ki [1]	Ki (Fig. 3C experiment, competitive FP with RNA-2, read-out: P-6 Ki, construct RRM12)
CC(=O)N[C@@H](CC(N)=O)C(=O)N[C@@H](CCC(N)=O)C(=O)N[C@@]1(C)CCCCCCCC[C@@](C)(C(=O)N[C@@H](C)C(=O)N[C@@H](CC(C)C)C(=O)N[C@@H](CCC(N)=O)C(=O)N[C@@H](C)C(=O)N[C@H](C(=O)N[C@@H](CC(N)=O)C(N)=O)C(C)C)NC(=O)[C@H](CCC(N)=O)NC(=O)[C@H](C)NC(=O)[C@H](CCCNC(=N)N)NC1=O [Peptide P-2]	11.6 µM	
CC(=O)N[C@@H](CC(N)=O)C(=O)N[C@@H](CCC(N)=O)C(=O)N[C@@]1(C)CCCC=CCCCC2(CCCC=CCCC[C@](C)(C(=O)N[C@H](C(=O)N[C@@H](CC(N)=O)C(N)=O)C(C)C)NC(=O)[C@H](CCC(N)=O)NC(=O)[C@H](CC(C)C)NC(=O)[C@H](C)NC2=O)NC(=O)[C@H](CCC(N)=O)NC(=O)[C@H](C)NC(=O)[C@H](CCCNC(=N)N)NC1=O (stereo partly drawn) [Peptide P-6]	9.3 µM	8 ± 7.1 µM
